The target in assay [1] is T1, R146A mutant mouse 5-HT3ASR (Mus musculus, UniProt P23979, R147A).
T1 sequence (P23979 24-483 isoform P23979-2 R147A): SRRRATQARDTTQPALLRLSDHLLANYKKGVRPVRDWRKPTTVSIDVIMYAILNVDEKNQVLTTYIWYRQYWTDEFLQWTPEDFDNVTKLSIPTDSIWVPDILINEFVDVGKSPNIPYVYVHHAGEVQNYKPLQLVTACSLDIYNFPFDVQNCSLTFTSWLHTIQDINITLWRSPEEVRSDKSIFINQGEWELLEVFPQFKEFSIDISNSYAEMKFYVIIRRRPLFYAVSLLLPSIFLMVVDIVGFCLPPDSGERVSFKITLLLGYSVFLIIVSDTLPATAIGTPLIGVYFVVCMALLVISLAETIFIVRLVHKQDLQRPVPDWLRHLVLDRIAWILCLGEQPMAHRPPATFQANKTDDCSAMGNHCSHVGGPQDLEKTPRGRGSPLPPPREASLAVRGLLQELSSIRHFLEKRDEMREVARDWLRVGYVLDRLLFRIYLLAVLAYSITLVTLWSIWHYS
Put plainly: [^3H]granisetron saturation binding, R146A receptor. As to conditions: ± SE.

Assay [2] has as its system Q150A – K153A mutant mouse 5-HT3ASRs. Put plainly: [^3H]granisetron saturation binding, Q150A – K153A receptors.
In assay [3] the target is T2, wildtype mouse 5-HT3ASR (Mus musculus, UniProt P23979).
T2 sequence (P23979 24-483 isoform P23979-2 limits assumed): T1 sequence (P23979 24-483 isoform P23979-2 R147A) with A124R
The experiment in a line: [^3H]granisetron saturation binding, wildtype receptor.

The target in assay [4] is T3, Q150A mutant mouse 5-HT3ASR (Mus musculus, UniProt P23979, Q151A).
T3 sequence (P23979 24-483 isoform P23979-2 Q151A): T1 sequence (P23979 24-483 isoform P23979-2 R147A) with A124R, Q128A
Put plainly: [^3H]granisetron saturation binding, Q150A receptor. As to conditions: ± SE.

For assay [5], the target named is T4, N151A mutant mouse 5-HT3ASR (Mus musculus, UniProt P23979, N152A).
T4 sequence (P23979 24-483 isoform P23979-2 N152A): T1 sequence (P23979 24-483 isoform P23979-2 R147A) with A124R, N129A
Put plainly: [^3H]granisetron saturation binding, N151A receptor. As to conditions: ± SE.

In assay [6] the target is T5, V143A mutant mouse 5-HT3ASR (Mus musculus, UniProt P23979, V144A).
T5 sequence (P23979 24-483 isoform P23979-2 V144A): T1 sequence (P23979 24-483 isoform P23979-2 R147A) with V121A, A124R
Put plainly: [^3H]granisetron saturation binding, V143A receptor. As to conditions: ± SE.

Results on one molecule are retold here after PMC117120 (BMC Biochemistry, 2002).

Where a chain is given by its changes, count along the chain named. Where “and” joins values, the source holds several entries; their conditions need not be identical. Equal entries are not always repeated.

`CN1C2CCCC1CC(NC(=O)c1nn(C)c3ccccc13)C2` (stereo not shown) [[^3H]granisetron]: the Bmax in assay [1] is 1.0 ± .16 pmol/mg protein; in assay [3] (absence of protease inhibitor, ± SE), 3.2 ± 0.13 pmol/mg protein and 3.2 ± .13 pmol/mg protein; in assay [4], 0.56 ± .09 pmol/mg protein; in assay [5], 4.9 ± 1.1 pmol/mg protein; in assay [6], 1.1 ± .04 pmol/mg protein. Besides, the “decrease in binding affinity (increased Kd), mutant vs wildtype” value in assay [2] was 6 – 8 fold. Besides, the “Bmax (+ protease inhibitor)” value in assay [3] (membranes prepared in the presence of protease inhibitor cocktail) was found to be 3.1 ± 0.11 pmoles/mg protein. Moreover, the “Hill coefficient (n)” value worked out at 1 ± 0.12 in assay [3] (± SE), 1.66 ± 0.16 in assay [5] and 0.97 ± 0.13 in assay [6].
